By IC50 is commonly meant the concentration that gives 50% inhibition.

phosphorylated active hERK2 enzyme, sequence (P28482 whole entry): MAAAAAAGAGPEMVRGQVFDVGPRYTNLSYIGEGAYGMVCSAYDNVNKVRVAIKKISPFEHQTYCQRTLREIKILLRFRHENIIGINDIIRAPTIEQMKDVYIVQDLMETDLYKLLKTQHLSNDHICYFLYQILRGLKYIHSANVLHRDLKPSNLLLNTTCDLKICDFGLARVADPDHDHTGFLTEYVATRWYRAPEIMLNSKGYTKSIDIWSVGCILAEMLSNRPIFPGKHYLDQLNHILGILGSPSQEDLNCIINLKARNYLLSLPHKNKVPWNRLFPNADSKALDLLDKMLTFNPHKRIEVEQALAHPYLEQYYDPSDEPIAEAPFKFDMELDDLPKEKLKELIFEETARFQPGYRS

One experiment addresses phosphorylated active hERK2 enzyme (Homo sapiens (Human), UniProt P28482).
Conditions: not given
`Cc1cc(-n2ncc3cc(NC(=O)N[C@H]4CCCC[C@@H]4NC(=O)c4ccccc4)ncc32)ccn1` (racemic) [Example 152, Racemic Trans N-[(1S,2S) and (1R, 2R)-2-({[1-(2-methylpyridin-4-yl)-1H-pyrazolo[3,4-c]pyridin-5-yl]carbamoyl}amino)cyclo-hexy]benzamide] gave an IC50 of 0.711 µM. On the same count and under the same terms, as for `C[C@@H](NC(=O)Nc1cc2cnn(CC3CCOCC3)c2c(CO)n1)c1ccccc1` [Example 309, 1-[7-(hydroxymethyl)-1-(tetrahydro-2H-pyran-4-ylmethyl)-1H-pyrazolo[3,4-c]pyridin-5-yl]-3-[(1R)-1-phenylethyl]urea], the figure is 0.285 µM.

The experiment is the same for the next values; noted with them: read-out: ERK2 IC50; IMAP-FP assay; 0.5 nM hERK2, 30 μM ATP; 10 point titration, 3 μM starting concentration.
On to `CC(C)(O)[C@@H](NC(=O)Nc1cc2cn[nH]c2cn1)c1ccccc1` [Example 230, (S)-1-(2-hydroxy-2-methyl-1-phenylpropyl)-3-(1H-pyrazolo[3,4-c]pyridin-5-yl)urea], for which the IC50 is 0.0699 µM.

As for `O=C(NCc1ccc(Cl)cc1Cl)Nc1cc2cnn(-c3ccncc3)c2cn1` [Example 11, 1-(2,4-dichlorobenzyl)-3-(1-pyridin-4-yl-1H-pyrazolo[3,4-c]pyridin-5-yl)urea], the IC50 was determined as 0.026 µM. In the case of `Cc1cc(-n2ncc3cc(NC(=O)NC4CNC(c5ccccc5)C4)ncc32)ccn1` (stereo not drawn) [Example 67, 1-[1-(2-methylpyridin-4-yl)-1H-pyrazolo[3,4-c]pyridin-5-yl]-3-(5-phenylpyrrolidin-3-yl)urea], the IC50 worked out at 0.201 µM. For the compound `Cc1cc(-n2ncc3cc(NC(=O)N[C@H](C)c4ccccc4Cl)ncc32)ccn1` [Example 44, 1-[(1R)-1-(2-chlorophenyl)ethyl]-3-[1-(2-methylpyridin-4-yl)-1H-pyrazolo[3,4-c]pyridin-5-yl]urea], the IC50 came to 0.0156 µM.

As to `COCCNC(=O)Nc1cc2cnn(-c3ccnc(C)c3)c2cn1` [Example 111, 1-(2-methoxyethyl)-3-[1-(2-methylpyridin-4-yl)-1H-pyrazolo[3,4-c]pyridin-5-yl)urea], the concentration for half-maximal inhibition (IC50) is 0.0818 µM.

Regarding `Cc1cc(-n2ncc3cc(NC(=O)NCCN4CC5CC4CN5c4ccccc4)ncc32)ccn1` (stereo not drawn) [Example 70, 1-[1-(2-methylpyridin-4-yl)-1H-pyrazolo[3,4-c]pyridin-5-yl]-3-[2-(5-phenyl-2,5-diazabicyclo[2.2.1]hept-2-yl)ethyl]urea], the IC50 came to 0.0169 µM.

As to `Cc1cc(-n2ncc3cc(NC(=O)NC(c4ccccc4)C4CCCO4)ncc32)ccn1` (stereo not drawn) [Example 159, 1-[1-(2-methylpyridin-4-yl)-1H-pyrazolo[3,4-c]pyridin-5-yl]-3-[phenyl(tetrahydrofuran-2-yl)methyl]urea], the half-inhibitory concentration (IC50) stood at 0.00249 µM. As for `Cc1cc(-n2ncc3cc(NC(=O)N[C@H]4CN(C)C[C@@H]4c4cc(C)on4)ncc32)ccn1` [Example 150, 1-[(3R,4S)-1-methyl-4-(5-methylisoxazol-3-yl)pyrrolidin-3-yl]-3-[1-(2-methylpyridin-4-yl)-1H-pyrazolo[3,4-c]pyridin-5-yl]urea], the IC50 is 0.0326 µM.

For `Cc1cc(-n2ncc3cc(NC(=O)NCCN4CCOCC4)ncc32)ccn1` [Example 109, 1-[1-(2-methylpyridin-4-yl)-1H-pyrazolo[3,4-c]pyridin-5-yl]-3-(2-morpholin-4-ylethyl)urea], the IC50 is 0.627 µM. Regarding `Cc1cc(-n2ncc3cc(NC(=O)NCc4cnn5ccccc45)ncc32)ccn1` [Example 64, 1-[1-(2-methylpyridin-4-yl)-1H-pyrazolo[3,4-c]pyridin-5-yl]-3-(pyrazolo[1,5-a]pyridin-3-ylmethyl)urea], the IC50 came to 0.0716 µM. In the case of `Cn1cc(-n2ncc3cc(NC(=O)NCc4ccc(F)cc4)ncc32)cn1` [Example 4, 1-(4-fluorobenzyl)-3-[1-(1-methyl-1H-pyrazol-4-yl)-1H-pyrazolo[3,4-c]pyridin-5-yl)urea], the IC50 was found to be 0.0413 µM. Same read-out and setting: as for `CCC(O)(CC)[C@@H](NC(=O)Nc1cc2cnn(-c3ccnc(C)c3)c2cn1)c1ccccc1` [Example 293, 1-[(1S)-2-ethyl-2-hydroxy-1-phenylbutyl]-3-[1-(2-methylpyridin-4-yl)-1H-pyrazolo[3,4-c]pyridin-5-yl]urea], the figure is 0.00266 µM; as for `Cc1cc(-n2ncc3cc(NC(=O)NCCC4CCOC4)ncc32)ccn1` (stereo not drawn) [Example 83, 1-[1-(2-methylpyridin-4-yl)-1H-pyrazolo[3,4-c]pyridin-5-yl]-3-[2-(tetrahydrofuran-3-yl)ethyl]urea], 0.0647 µM. For `Cc1cc(-n2ncc3cc(NC(=O)N[C@H](C)c4ccc(F)c(Cl)c4)ncc32)ccn1` [Example 219, 1-[(1R)-1-(3-chloro-4-fluorophenyl)ethyl]-3-[1-(2-methylpyridin-4-yl)-1H-pyrazolo[3,4-c]pyridin-5-yl]urea], the IC50 came to 0.00285 µM. With `Cc1cc(-n2ncc3cc(NC(=O)NC[C@@H]4CCNC4)ncc32)ccn1` [Example 286, 1-[1-(2-methylpyridin-4-yl)-1H-pyrazolo[3,4-c]pyridin-5-yl]-3-[(3R)-pyrrolidin-3-ylmethyl]urea], the IC50 was 0.0234 µM. Turning to `C[C@@H](NC(=O)Nc1cc2cnn(-c3ccc(F)cc3)c2c(CNCCN(C)C)n1)c1ccccc1` [Example 320, 1-[7-({[2-(dimethylamino)ethyl]amino}methyl)-1-(4-fluorophenyl)-1H-pyrazolo[3,4-c]pyridin-5-yl]-3-[(1R)-1-phenylethyl]urea], the IC50 was determined as 1.24 µM. As for `Cc1cc(-n2ncc3cc(NC(=O)NCc4cc(C)nn4C)ncc32)ccn1` [Example 119, 1-[(1,3-dimethyl-1H-pyrazol-5-yl)methyl]-3-[1-(2-methylpyridin-4-yl)-1H-pyrazolo[3,4-c]pyridin-5-yl)urea], the 50% inhibitory concentration (IC50) stood at 0.0966 µM.

Consider `O=C(NCCc1ccccc1)Nc1cc2cnn(-c3ccncc3)c2cn1` [Example 8, 1-(2-phenylethyl)-3-(1-pyridin-4-yl-1H-pyrazolo[3,4-c]pyridin-5-yl)urea], for which the 50% inhibitory concentration (IC50) amounted to 0.0162 µM. Turning to `Cc1cc(-n2ncc3cc(NC(=O)NC4CCCC(c5ccc(F)cc5)C4)ncc32)ccn1` (stereo not drawn) [Example 173, 1-[3-(4-fluorophenyl)cyclohexyl]-3-[1-(2-methylpyridin-4-yl)-1H-pyrazolo[3,4-c]pyridin-5-yl]urea], the 50% inhibitory concentration (IC50) was found to be 0.0116 µM.

With `C=CC(=O)NC[C@@H](NC(=O)Nc1cc2cnn(C)c2cn1)c1ccccc1` [Example 328, N-[(2S)-2-{[(1-Methyl-1H-pyrazolo[3,4-c]pyridin-5-yl)carbamoyl]amino}-2-phenylethyl]prop-2-enamide], the 50% inhibitory concentration (IC50) was found to be 0.796 µM. For `CCCN1CC[C@@H](NC(=O)Nc2cc3cnn(-c4ccnc(C)c4)c3cn2)C1` [Example 29, 1-[1-(2-methylpyridin-4-yl)-1H-pyrazolo[3,4-c]pyridin-5-yl]-3-[(3R)-1-propylpyrrolidin-3-yl]urea], the IC50 worked out at 0.453 µM.

With `C[C@@H](NC(=O)Nc1cc2cnn(-c3ccc(F)cc3)c2c(CO)n1)c1ccccc1` [Example 240, 1-[1-(4-fluorophenyl)-7-(hydroxymethyl)-1H-pyrazolo[3,4-c]pyridin-5-yl]-3-[(1R)-1-phenylethyl]urea], the half-inhibitory concentration (IC50) was 0.0401 µM. For `Cc1cc(-n2ncc3cc(NC(=O)NC4CCCN(Cc5cccnc5Cl)C4)ncc32)ccn1` (stereo not drawn) [Example 268, 1-{1-[(2-chloropyridin-3-yl)methyl]piperidin-3-yl}-3-[1-(2-methylpyridin-4-yl)-1H-pyrazolo[3,4-c]pyridin-5-yl]urea], the IC50 was 0.0186 µM.

In the case of `Cc1cc(-n2ncc3cc(NC(=O)NC4CCOc5ccccc54)ncc32)ccn1` (stereo not drawn) [Example 172, 1-(3,4-dihydro-2H-chromen-4-yl)-3-[1-(2-methylpyridin-4-yl)-1H-pyrazolo[3,4-c]pyridin-5-yl)urea], the IC50 turned out to be 0.0407 µM. The same measure, in the same setting: as for `Cc1cc(-n2ncc3cc(NC(=O)N[C@H]4CN(C)C[C@@H]4CCc4ccccc4)ncc32)ccn1` [Example 115, 1-[(3R,4S)-1-methyl-4-(2-phenylethyl)pyrrolidin-3-yl]-3-[1-(2-methylpyridin-4-yl)-1H-pyrazolo[3,4-c]-pyridin-5-yl)urea], the figure is 0.000688 µM.

Values taken from patent US9884048B2, “ERK inhibitors” (Merck Sharp & Dohme Corp., priority 2014, dated 2018).
